Data published in US20240409585A1, “MACROCYCLIC IMMUNOMODULATORS” (priority 2021, published 2024).
Numbered stars: 1 amine (or outer) side, 2 acyl side, 3 side chain; on linkers, the order of the positions; unused ones are H or OH. Bridge positions count the residues as written; N and C are the ends. Square brackets hold non-standard residues; d marks the D form. Peptide text beside a SMILES is read from it. * marks the point of attachment. ξ: configuration not given here. Tyr(3-NO2) = N[C@@H](Cc1ccc(O)c([N+](=O)[O-])c1)C(=O)O; Phe(4-(3-Py)) = N[C@@H](Cc1ccc(-c2cccnc2)cc1)C(=O)O; X16 = O=C([C@H](Cc1ccc2cnccc2c1)N[*:1])[*:2]; Phe(4-CH2NH2) = NCc1ccc(C[C@H](N)C(=O)O)cc1; Bip = N[C@@H](Cc1ccc(-c2ccccc2)cc1)C(=O)O; Phe(3-CN) = N#Cc1cccc(C[C@H](N)C(=O)O)c1; Phe(3-Me) = Cc1cccc(C[C@H](N)C(=O)O)c1; Val(3-OH) = CC(C)(O)[C@H](N)C(=O)O; NMePhg = CN[C@H](C(=O)O)c1ccccc1; 3Pal = N[C@@H](Cc1cccnc1)C(=O)O; 4Pal = N[C@@H](Cc1ccncc1)C(=O)O; Cha = N[C@@H](CC1CCCCC1)C(=O)O; Cit = NC(=O)NCCC[C@H](N)C(=O)O; Ile(3ξ) = CCC(C)[C@H](N)C(=O)O; Thr(3ξ) = CC(O)[C@H](N)C(=O)O; dNva = CCC[C@@H](N)C(=O)O; Carboxymethyl = O=C(O)C*; NMeA = CN[C@@H](C)C(=O)O; Nle = CCCC[C@H](N)C(=O)O; Orn = NCCC[C@H](N)C(=O)O; Dab = NCC[C@H](N)C(=O)O; Dap = NC[C@H](N)C(=O)O

Each molecule was assayed against T1, PE-labeled human PD-L1-Ig binding to Jurkat cell line over-expressing human PD-1 (Jurkat-PD-1) (Homo sapiens, UniProt Q15116) (assay: Jurkat-PD-1 Cell Binding High-Content Screening Assay (CBA): Method 1). Details: Jurkat-hPD-1 cells, PE-labeled PD-L1-Ig 20 nM final; read-out: Jurkat HPDL1 PD1 IC50 (uM) (Method 1).
T1 construct: expressed in transfected cells; host or cells: Jurkat
T1 sequence (Q15116 25-288): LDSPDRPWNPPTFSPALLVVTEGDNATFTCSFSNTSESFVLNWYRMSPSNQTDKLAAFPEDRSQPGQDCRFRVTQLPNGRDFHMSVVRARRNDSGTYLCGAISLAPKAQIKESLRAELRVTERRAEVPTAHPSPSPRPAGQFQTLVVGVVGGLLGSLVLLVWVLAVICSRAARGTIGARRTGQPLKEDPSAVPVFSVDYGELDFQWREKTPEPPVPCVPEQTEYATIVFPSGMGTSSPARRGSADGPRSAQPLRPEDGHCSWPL
In the case of CC(=O)NCCCC[C@@H]1NC(=O)[C@H](C(C)C)NC(=O)[C@H](CC2CCCCC2)NC(=O)[C@H](CCN)NC(=O)[C@@H](CC(C)C)NC(=O)[C@H](C)N(C)C(=O)[C@H](Cc2cnc[nH]2)NC(=O)[C@H](Cc2ccc(-c3ccccc3)cc2)NC(=O)[C@H](C(C)C)NC(=O)[C@H](Cc2cccc(C)c2)NC(=O)[C@H](CC(=O)O)NC(=O)[C@H](Cc2ccc(OCC(=O)O)cc2)NC(=O)[C@H](Cc2ccc(OCC(=O)O)cc2)NC(=O)CSC[C@@H](C(N)=O)NC1=O [Compound 2262] ({CH2CO}-Y(Carboxymethyl)Y(Carboxymethyl)D[Phe(3-Me)]V[Bip]H[NMeA][dL][Dab][Cha]VK(Ac)C-NH2; thioether N-14), the IC50 is reported as 0.01 µM. Molecule CC(C)C[C@@H]1NC(=O)[C@H](CCN)NC(=O)[C@@H](CC(C)C)NC(=O)[C@H](C)N(C)C(=O)[C@H](CCCNC(=N)N)NC(=O)[C@H](Cc2ccc(-c3ccccc3)cc2)NC(=O)[C@H](C(C)C)NC(=O)[C@H](Cc2cccc(C#N)c2)NC(=O)[C@H](CC(=O)O)NC(=O)[C@H](Cc2ccc(OCC(=O)O)cc2)NC(=O)[C@H](CN)NC(=O)CSC[C@@H](C(=O)N[C@@H](C)C(N)=O)NC(=O)[C@H]([C@@H](C)O)NC(=O)[C@H](C(C)C)NC1=O [Compound 1449] ({CH2CO}-[Dap]Y(Carboxymethyl)D[Phe(3-CN)]V[Bip]R[NMeA][dL][Dab]LVTCA-NH2; thioether N-14) has an IC50 of 0.17 µM. CC(C)C[C@@H]1NC(=O)[C@H](CCN)NC(=O)[C@@H](CC(C)C)NC(=O)[C@H](c2ccccc2)N(C)C(=O)[C@H](C(C)C)NC(=O)[C@H](Cc2ccc(-c3ccccc3)cc2)NC(=O)[C@H](C(C)C)NC(=O)[C@H](Cc2c[nH]c3ccccc23)NC(=O)[C@H](CC(=O)O)NC(=O)[C@H](Cc2ccc(O)cc2)NC(=O)[C@H](CC(N)=O)NC(=O)CSC[C@@H](C(=O)N[C@@H](C)C(N)=O)NC(=O)[C@H]([C@@H](C)O)NC(=O)[C@H](C(C)C)NC1=O [Compound 1366] ({CH2CO}-NYDWV[Bip]V[NMePhg][dL][Dab]LVTCA-NH2; thioether N-14) showed an IC50 of 0.03 µM. Work on CC(C)C[C@@H]1NC(=O)[C@H](CCN)NC(=O)[C@@H](CC(C)C)NC(=O)[C@H](C)N(C)C(=O)[C@H](CCCNC(N)=O)NC(=O)[C@H](Cc2ccc(-c3ccccc3)cc2)NC(=O)[C@H](C(C)C)NC(=O)[C@H](Cc2c[nH]c3ccccc23)NC(=O)[C@H](CC(=O)O)NC(=O)[C@H](Cc2ccc(O)cc2)NC(=O)[C@H](Cc2ccc3cnccc3c2)NC(=O)CSC[C@@H](C(=O)N[C@@H](C)C(N)=O)NC(=O)[C@H](C(C)O)NC(=O)[C@H](C(C)C)NC1=O (stereo partly drawn) [Compound 2037] ({CH2CO}-[X16]YDWV[Bip][Cit][NMeA][dL][Dab]LV[Thr(3ξ)]CA-NH2; thioether N-14) yielded an IC50 of 0.02 µM. CC(C)C[C@@H]1NC(=O)[C@H](CCN)NC(=O)[C@@H](CC(C)C)NC(=O)[C@H](C)N(C)C(=O)[C@H](CCCNC(N)=O)NC(=O)[C@H](Cc2ccc(-c3ccccc3)cc2)NC(=O)[C@H](C(C)C)NC(=O)[C@H](Cc2c[nH]c3ccccc23)NC(=O)[C@H](CC(=O)O)NC(=O)[C@H](Cc2ccc(O)c([N+](=O)[O-])c2)NC(=O)[C@H](Cc2ccncc2)NC(=O)CSC[C@@H](C(=O)N[C@@H](C)C(N)=O)NC(=O)[C@H]([C@@H](C)O)NC(=O)[C@H](C(C)C)NC1=O [Compound 1336] ({CH2CO}-[4Pal][Tyr(3-NO2)]DWV[Bip][Cit][NMeA][dL][Dab]LVTCA-NH2; thioether N-14) showed an IC50 of 0.01 µM. Work on CC[C@H](C)[C@@H]1NC(=O)[C@H](Cc2ccc(-c3ccccc3)cc2)NC(=O)[C@H](C(C)C)NC(=O)[C@H](Cc2cccc(C)c2)NC(=O)[C@H](CC(=O)O)NC(=O)[C@H](Cc2ccc(O)cc2)NC(=O)[C@H](CC(N)=O)NC(=O)CSC[C@@H](C(=O)N[C@H](C)C(N)=O)NC(=O)[C@H]([C@@H](C)O)NC(=O)[C@H](C(C)(C)O)NC(=O)[C@H](CC2CCCCC2)NC(=O)[C@H](CCN)NC(=O)[C@@H](CC(C)C)NC(=O)[C@H](C)N(C)C1=O [Compound 1690] ({CH2CO}-NYD[Phe(3-Me)]V[Bip]I[NMeA][dL][Dab][Cha][Val(3-OH)]TC[dA]-NH2; thioether N-14) yielded an IC50 of 0.01 µM. CCCC[C@@H]1NC(=O)[C@H](Cc2c[nH]c3ccccc23)NC(=O)[C@H](CC(=O)O)NC(=O)[C@H](Cc2ccc(OCC(=O)O)cc2)NC(=O)[C@H](C(C)O)NC(=O)CSC[C@@H](C(=O)N[C@@H](CC(N)=O)C(=O)O)NC(=O)[C@H](CO)NC(=O)[C@H](C(C)C)NC(=O)[C@H](CC(C)C)NC(=O)[C@H](CCN)NC(=O)[C@@H](CC(C)C)NC(=O)[C@H](C)N(C)C(=O)[C@H](C(C)CC)NC(=O)[C@H](Cc2ccc(-c3ccccc3)cc2)NC1=O (stereo partly drawn) [Compound 2221] ({CH2CO}-[Thr(3ξ)]Y(Carboxymethyl)DW[Nle][Bip][Ile(3ξ)][NMeA][dL][Dab]LVSCN-OH; thioether N-14) was tested, and the IC50 was 0.06 µM. Molecule CC(C)C[C@@H]1NC(=O)[C@H](Cc2c[nH]c3ccccc23)NC(=O)[C@H](CC(=O)O)NC(=O)[C@H](Cc2ccc(O)cc2)NC(=O)[C@H](Cc2cccnc2)NC(=O)CSC[C@@H](C(=O)NCC(N)=O)NC(=O)[C@H](CO)NC(=O)[C@H](C(C)C)NC(=O)[C@H](CC(C)C)NC(=O)[C@H](CC(N)=O)NC(=O)[C@@H](C)NC(=O)[C@H](C)N(C)C(=O)[C@H](C(C)C)NC(=O)[C@H](Cc2ccc(-c3ccccc3)cc2)NC1=O [Compound 1743] ({CH2CO}-[3Pal]YDWL[Bip]V[NMeA][dA]NLVSCG-NH2; thioether N-14) has an IC50 of 0.02 µM. CC(C)C[C@@H]1NC(=O)[C@H](Cc2c[nH]c3ccccc23)NC(=O)[C@H](CC(=O)O)NC(=O)[C@H](Cc2ccncc2)NC(=O)[C@H](Cc2ccc(OCC(=O)O)cc2)NC(=O)CSC[C@@H](C(=O)N[C@@H](CCN)C(N)=O)NC(=O)[C@H](CCCN)NC(=O)[C@H](C(C)C)NC(=O)[C@H](CC2CCCCC2)NC(=O)[C@H](CCN)NC(=O)[C@@H](CC(C)C)NC(=O)[C@H](C)N(C)C(=O)[C@H](C(C)C)NC(=O)[C@H](Cc2ccc(-c3ccccc3)cc2)NC1=O [Compound 1948] ({CH2CO}-Y(Carboxymethyl)[4Pal]DWL[Bip]V[NMeA][dL][Dab][Cha]V[Orn]C[Dab]-NH2; thioether N-14) was tested, and the IC50 was 0.02 µM. For CC(C)C[C@@H]1NC(=O)[C@H](CCCNC(=N)N)NC(=O)[C@@H](CC(C)C)NC(=O)[C@H](C)N(C)C(=O)[C@H](CCCNC(=N)N)NC(=O)[C@H](Cc2ccc(-c3cccnc3)cc2)NC(=O)[C@H](C(C)C)NC(=O)[C@H](Cc2c[nH]c3ccccc23)NC(=O)[C@H](CC(=O)O)NC(=O)[C@H](Cc2ccc(O)cc2)NC(=O)[C@H](Cc2ccccc2)NC(=O)CSC[C@@H](C(=O)N[C@@H](C)C(N)=O)NC(=O)[C@H]([C@@H](C)O)NC(=O)[C@H](C(C)C)NC1=O [Compound 1096] ({CH2CO}-FYDWV[Phe(4-(3-Py))]R[NMeA][dL]RLVTCA-NH2; thioether N-14), the IC50 was 0.29 µM. CC(C)C[C@@H]1NC(=O)[C@H](Cc2c[nH]c3ccccc23)NC(=O)[C@H](CC(=O)O)NC(=O)[C@H](Cc2ccc(OCC(=O)O)cc2)NC(=O)[C@H](Cc2cnc[nH]2)NC(=O)CSC[C@@H](C(=O)N[C@@H](C)C(N)=O)NC(=O)[C@H](CO)NC(=O)[C@H](C(C)C)NC(=O)[C@H](CC(C)C)NC(=O)[C@H](CC(N)=O)NC(=O)[C@@H](C)NC(=O)[C@H](C)N(C)C(=O)[C@H](C(C)C)NC(=O)[C@H](Cc2ccc(-c3ccccc3)cc2)NC1=O [Compound 1799] ({CH2CO}-HY(Carboxymethyl)DWL[Bip]V[NMeA][dA]NLVSCA-NH2; thioether N-14) was tested, and the IC50 was 0.18 µM. Molecule CCC(C)[C@@H]1NC(=O)[C@H](Cc2ccc(-c3ccccc3)cc2)NC(=O)[C@H](C(C)C)NC(=O)[C@H](Cc2c[nH]c3ccccc23)NC(=O)[C@H](CC(=O)O)NC(=O)[C@H](Cc2ccc(O)cc2)NC(=O)[C@H](Cc2ccc(CN)cc2)NC(=O)CSC[C@@H](C(=O)N[C@@H](C)C(N)=O)NC(=O)[C@H](C(C)O)NC(=O)[C@H](C(C)C)NC(=O)[C@H](CC2CCCCC2)NC(=O)[C@H](CC(N)=O)NC(=O)[C@@H](CC(C)C)NC(=O)[C@H](C)N(C)C1=O (stereo partly drawn) [Compound 2047] ({CH2CO}-[Phe(4-CH2NH2)]YDWV[Bip][Ile(3ξ)][NMeA][dL]N[Cha]V[Thr(3ξ)]CA-NH2; thioether N-14) has an IC50 of 0.06 µM. With CC(C)C[C@@H]1NC(=O)[C@H](Cc2c[nH]c3ccccc23)NC(=O)[C@H](CC(=O)O)NC(=O)[C@H](Cc2ccc(O)cc2)NC(=O)[C@H](Cc2ccccc2)NC(=O)CSC[C@@H](C(=O)N[C@@H](C)C(N)=O)NC(=O)[C@H]([C@@H](C)O)NC(=O)[C@H](C(C)C)NC(=O)[C@H](CC(C)C)NC(=O)[C@H](CC(N)=O)NC(=O)[C@@H](CC(C)C)NC(=O)[C@H](C)N(C)C(=O)[C@H](C(C)C)NC(=O)[C@H](Cc2ccc(-c3ccccc3)cc2)NC1=O [Compound 1467] ({CH2CO}-FYDWL[Bip]V[NMeA][dL]NLVTCA-NH2; thioether N-14) the IC50 was 0.02 µM. Work on CCC[C@H]1NC(=O)[C@H](C)N(C)C(=O)[C@H](C(C)C)NC(=O)[C@H](Cc2ccc(-c3ccccc3)cc2)NC(=O)[C@H](CC(C)C)NC(=O)[C@H](Cc2c[nH]c3ccccc23)NC(=O)[C@H](CC(=O)O)NC(=O)[C@H](Cc2ccc(O)cc2)NC(=O)[C@H](Cc2ccccc2)NC(=O)CSC[C@@H](C(=O)N[C@@H](C)C(N)=O)NC(=O)[C@H](CO)NC(=O)[C@H](C(C)C)NC(=O)[C@H](CC(C)C)NC(=O)[C@H](CC(N)=O)NC1=O [Compound 1755] ({CH2CO}-FYDWL[Bip]V[NMeA][dNva]NLVSCA-NH2; thioether N-14) yielded an IC50 of 0.03 µM. Molecule CCCC[C@@H]1NC(=O)[C@H](CC(N)=O)NC(=O)[C@@H](C)NC(=O)[C@H](C)N(C)C(=O)[C@H](C(C)C)NC(=O)[C@H](Cc2ccc(-c3ccccc3)cc2)NC(=O)[C@H](CC(C)C)NC(=O)[C@H](Cc2c[nH]c3ccccc23)NC(=O)[C@H](CC(=O)O)NC(=O)[C@H](Cc2ccc(O)cc2)NC(=O)[C@H](Cc2ccccc2)NC(=O)CSC[C@@H](C(=O)N[C@@H](C)C(N)=O)NC(=O)[C@H]([C@@H](C)O)NC(=O)[C@H](CCCNC(=N)N)NC1=O [Compound 1816] ({CH2CO}-FYDWL[Bip]V[NMeA][dA]N[Nle]RTCA-NH2; thioether N-14) has an IC50 of 0.32 µM.
